Experiment [1] has as its target T1, APOL1 G2 (Homo sapiens, UniProt O14791, DEL388-389).
T1 construct: expressed in transfected cells; host or cells: HEK293 T-REx clonal line stably expressing GCaMP6f (HEK T-REx/GCaMP6f/APOL1 G2 K6.3), doxycycline induced
T1 sequence (O14791 with tags, fused parts or gaps DEL388-389): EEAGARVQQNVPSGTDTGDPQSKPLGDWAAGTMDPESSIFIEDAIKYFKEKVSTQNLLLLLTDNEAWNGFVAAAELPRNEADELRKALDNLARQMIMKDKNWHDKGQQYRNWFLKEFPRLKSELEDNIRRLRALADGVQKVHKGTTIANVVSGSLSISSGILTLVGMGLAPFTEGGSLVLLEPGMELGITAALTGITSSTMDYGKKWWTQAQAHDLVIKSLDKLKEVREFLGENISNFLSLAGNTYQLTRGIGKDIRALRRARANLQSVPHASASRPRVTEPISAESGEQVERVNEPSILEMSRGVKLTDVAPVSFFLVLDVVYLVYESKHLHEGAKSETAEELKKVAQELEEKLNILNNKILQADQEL
The experiment is described as follows: APOL1-mediated calcium transport (calcium influx) assay, HEK T-REx/GCaMP6f/APOL1 G2 K6.3 cells, FLIPR TETRA. Format: cell-based. The conditions noted are these: prevention of calcium influx; geometric mean of at least 2 assay runs; † = average of a technical replicate from a single assay run. A digest of the protocol:
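A HEK293 T-REx clone stably expressing GCaMP6f had APOL1 G2 induced with doxycycline (20 ng/mL solution added) for 6 h. Cells were then washed into Ca2+-free Tyrode's buffer (pH 7.4) and preincubated with compounds (duplicate 8-point) for 10 min at room temperature. Ca2+ injection to 5 mM final produced FLIPR GCaMP fluorescence, giving AC50 for influx inhibition (geometric mean, ≥2 runs).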

Experiment [2] concerns HEK293 clonal cell line overexpressing APOL1 G1. The experiment is described as follows: APOL1 G1 HEK293 cell rescue assay (Example B3). The conditions noted are these: Homo sapiens, HEK293, HEK293 clonal line overexpressing APOL1 G1; geometric mean of at least 2 runs; † = single run; ¥ = concentration at 50% rescue estimated (no sigmoidal curve). It counts as cell-based. A digest of the protocol:
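HEK293 clonal line overexpressing APOL1 G1; EC50 is half-maximal reversal of APOL1-induced cell death. Values are the geometric mean of ≥2 runs on separate days, each run the average of duplicate wells. Where no sigmoidal curve could be fitted, the concentration giving 50% rescue was estimated.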

SMILES strings stand for the structures.

In general, AC50 refers to the midpoint of the concentration-response curve, whichever way the signal moves. In general, EC50 refers to the concentration needed to bring the measured effect to its halfway point.

Consider `Cn1c(=O)oc2cc(OCCN3CCC4(CC3)C(=O)Nc3ccc(C#N)cc34)ccc21` [Compound 132, 1′-{2-[(3-methyl-2-oxo-2,3-dihydro-1,3-benzoxazol-6-yl)oxy]ethyl}-2-oxo-1,2-dihydrospiro[indole-3,4′-piperidine]-5-carbonitrile], for which the AC50 in experiment [1] was 492 nM. Besides, the EC50 in experiment [2] was 685 nM.
In the case of `N#Cc1ccc2c(c1)C1(CCN(CCOc3ccc(S(=O)(=O)C(F)F)cc3)CC1)C(=O)N2` [Compound 113, 1′-[2-(4-difluoromethanesulfonylphenoxy)ethyl]-2-oxo-1,2-dihydrospiro[indole-3,4′-piperidine]-5-carbonitrile], in experiment [1], the AC50 was 524 nM. The EC50 in experiment [2] is 176 nM.

Source of the values: patent publication US12344610B2, “APOL1 inhibitors and methods of use” (Maze Therapeutics, Inc., priority 2022, dated 2025).
